Assay results from patent US20240108684A1, “DOSING REGIMENS FOR TREATMENT OF FUNGAL INFECTIONS” (priority 2016, published 2024).
*1 amine or outer side, *2 acyl side, *3 side chain or, on linkers, in order; H or OH if unused. Where a SMILES comes first, the peptide text is derived from it. Bridges are numbered along the chain shown (N, C = ends). [ ]: non-standard residue; d: D form. The star is where a group is joined. Orn(4R-OH,5R-OCH2CH2NMe3+) = C[N+](C)(C)CCO[C@@H](N[*:3])[C@H](O)C[C@H](N[*:1])C(=O)[*:2]; pTerphenylCO(4''-OnC5H11) = CCCCCOc1ccc(-c2ccc(-c3ccc(C(=O)*)cc3)cc2)cc1; hTyr(3S-OH,4S-OH) = N[C@H](C(=O)O)[C@H](O)[C@@H](O)c1ccc(O)cc1; Pro(3S-OH,4S-Me) = C[C@H]1CN[C@H](C(=O)O)[C@H]1O; Hyp = O=C(O)[C@@H]1C[C@@H](O)CN1

Experiments:
[1] = tested on: Candida albicans; test: Nonclinical studies of Candida albicans infections in mice (PK-PD target); assay type: in vivo
Experimental: (§1) Monte Carlo simulations were conducted to assess the probability of PK-pharmacodynamic (PD) target attainment using a variety of exploratory dosing regimens. Two dosing regimens were selected for further investigation (Table 5). […] Nonclinical studies of Candida albicans infections in mice have shown that a CD101 fAUC0-168:MIC ratio of 10 has been associated with a 2-log reduction in fungal burden in infected kidneys. This value of 10 was therefore chosen as the PK-PD target of interest for the Monte Carlo simulations.

[2] = tested on: C.albicans (Strain R303); test: MIC of the infecting strain R303; conditions: Candida albicans
[3] = tested on: C.albicans (Strain R303); test: Dose-fractionation study in neutropenic mice, kidney fungal burden; conditions: 2 mg/kg as a single dose IP, at 168 hours
Experimental: Dose-Fractionation Study. Male or female ICR mice (5 per regimen and observation time) weighing 22±2 g were rendered neutropenic for the study by injecting the mice with cyclophosphamide treatment four days (−Day 4) (150 mg/kg IP) and one day (−Day 1) prior to infection at 100 mg/kg IP. Neutropenia was sustained for the duration of the study with cyclophosphamide doses (100 mg/kg IP) every 48 hours on days +1, +3, +5 and +7 after infection.
Mice were sacrificed 168 hours (7 days) following the start of treatment. Control arm mice were sacrificed 0, 24, and 48 hours post administration of vehicle. Paired kidneys are aseptically harvested, homogenized, and plated for colony counts to determine the fungal burden (CFU/g).

[4] = tested on: C. albicans; conditions: Sentry 2014; compared with MIC of 0.5 mg/L; cited from earlier work
[5] = tested on: C. albicans; test: Neutropenic murine disseminated candidiasis model, PK/PD; conditions: for 1 log kill dose / Static Dose: single IP dose
[6] = tested on: Aspergillus fumigatus (ATCC 13073); test: Neutropenic mouse model of aspergillosis, survival; assay type: in vivo, mice; conditions: 2 mg/kg IV or IP one dose; 10 days; P<0.05
[7] = Plasma protein binding assumed for the simulations; assay type: in vitro ADME; conditions: assumed for the Monte Carlo simulations
Experimental: as §1

[8] = tested on: C. glabrata; test: Mutant prevention concentration (MPC); assay type: cell-based, Candida glabrata
Excerpt: As used herein, the term “mutant prevention concentration” or “MPC” refers to the concentration of a drug sufficient to suppress the development of all but very rare spontaneous mutants. The range of drug concentrations between the MIC and MPC represents a mutant selection window wherein de novo mutants are most likely to occur. Therapeutic regimens that maximize the duration of drug concentrations in excess of the MPC thereby minimize the potential for resistance development during the course of therapy.
Selection of resistance strains in vivo predominantly occurs over a range of drug concentrations falling between the MIC and MPC values. Dosing paradigms that result in plasma drug concentrations in excess of the MPC are therefore more desirable and effective in preventing the development of de novo mutants during the course of therapy (see, e.g., Drlica et al., J. Antimicrob. Chemother. 52:11-17, 2003). Currently approved treatment regimens for caspofungin, micafungin, and anidulafungin involve once-daily dosing at levels such that the Cmax is unlikely to be equivalent to or exceed the MPC at any point during treatment.

[9] = tested on: glabrata; conditions: Sentry 2014; compared with MIC of 0.5 mg/L; cited from earlier work
[10] = tested on: C. albicans (R357); test: Disseminated infection model with C. albicans R357, kidney fungal counts; assay type: in vivo, ICR mice
[11] = tested on: azole-resistant C. albicans R357 strain; test: MIC and CLSI susceptibility, azole-resistant C. albicans R357; assay type: cell-based, Candida albicans; conditions: Candida albicans
[12] = Pharmacokinetic study, single IP dose; assay type: in vivo, ICR mice; conditions: 1 to 16 mg/kg IP
Experimental: Pharmacokinetic Study. Healthy female ICR mice were given a single dose of CD101 via intraperitoneal (IP) injection. The following doses, at three mice per dose, were studied: 1, 4, and 16 mg/kg.

[13] = Single dose plasma PK after IP doses; conditions: mouse, 64 mg/kg

Compound: CCCCCOc1ccc(-c2ccc(-c3ccc(C(=O)N[C@H]4C[C@@H](O)[C@@H](OCC[N+](C)(C)C)NC(=O)[C@@H]5[C@@H](O)[C@@H](C)CN5C(=O)[C@H]([C@@H](C)O)NC(=O)[C@H]([C@H](O)[C@@H](O)c5ccc(O)cc5)NC(=O)[C@@H]5C[C@@H](O)CN5C(=O)[C@H]([C@@H](C)O)NC4=O)cc3)cc2)cc1 [CD101] ({pTerphenylCO(4''-OnC5H11)}-[Orn(4R-OH,5R-OCH2CH2NMe3+)]T[Hyp][hTyr(3S-OH,4S-OH)]T[Pro(3S-OH,4S-Me)]; lactam 1-C)
- fAUC0-168:MIC ratio associated with a 2-log reduction in fungal burden in infected kidneys [1]: 10
- MIC [2]: 0.125 µg/mL
- CFU reduction from baseline [3]: greater than 2 log10 CFU
- MIC90 [4]: 0.06 µg/mL
- 1 log kill Ave 24 h AUC/MIC ([5]; C. albicans 98-17): 490
- Stasis Ave 24 h AUC/MIC ([5]; C. albicans 98-17): 274
- 1 log kill dose ([5]; C. albicans 98-17, 7 days): 2.73 mg/kg
- Static Dose ([5]; C. albicans 98-17, 7 days): 1.34 mg/kg
- 1 log kill Ave 24 h AUC/MIC ([5]; C. albicans 98-210): 1574
- Stasis Ave 24 h AUC/MIC ([5]; C. albicans 98-210): 868
- 1 log kill dose ([5]; C. albicans 98-210, 7 days): 2.28 mg/kg
- Static Dose ([5]; C. albicans 98-210, 7 days): 1.06 mg/kg
- 1 log kill Ave 24 h AUC/MIC ([5]; C. albicans 580): 1429
- Stasis Ave 24 h AUC/MIC ([5]; C. albicans 580): 948
- 1 log kill dose ([5]; C. albicans 580, 7 days): 2.03 mg/kg
- Static Dose ([5]; C. albicans 580, 7 days): 1.20 mg/kg
- 1 log kill Ave 24 h AUC/MIC ([5]; C. albicans K-1): 6435
- Stasis Ave 24 h AUC/MIC ([5]; C. albicans K-1): 3426
- 1 log kill dose ([5]; C. albicans K-1, 7 days): 5.26 mg/kg
- Static Dose ([5]; C. albicans K-1, 7 days): 2.52 mg/kg
- Maximal kill ([5]; C. albicans and C. glabrata strains, 0.016-64 mg/kg once IP, 7 days): over 2 log10 CFU/kidney
- Survival versus vehicle [6]: significantly longer survival than vehicle
- Plasma protein binding [7]: 99.1%
- MPC [8]: 16 µg/mL
- MIC90 [9]: 0.06 µg/mL
- Antimicrobial effect versus vehicle (kidney fungal counts) ([10]; 3, 10, and 30 mg/kg IP once, 48 and 72 hr after infection): Significant antimicrobial effects (P<0.05)
- Reduction in fungal counts ([10]; all CD101 groups (3, 10, 30 mg/kg IP), 48 and 72 hr): two log reduction
- MIC [11]: 0.125 µg/mL
- Linearity of PK [12]: linear PK
- AUC(0-inf) [13]: 93 to 4050 µg·h/mL
- Cmax [13]: 2600 to 77000 ng/mL
- half-life [13]: 1680 to 2460 min
